In PubChem BioAssay AID1259420 (Broad Institute, 2018):
Several values for one entry are separate records, joined by “and”; a condition that tells them apart may be missing. Equal values may be shown once. Inconclusive results are not listed. Activity calls are given as the source filed them. No rule for the calls is given here.

Test system: Toxoplasma gondii growth in host cells, no IFN-gamma
Assay: T. gondii intracellular growth, IFN-gamma absent, dose response, cell-based (AID 1259420);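 also: host cells were HeLa; final incubation lasted 72 hours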

| SMILES | AC50 |
| --- | --- |
| Cc1ccc(S(=O)(=O)N2CC[C@@H]3[C@@H](CO)Nc4ccc(-c5cccc(C(=O)N(C)C)c5)cc4[C@@H]32)cc1 | 13.8 µM |
| COc1cccc(-c2ccc3c(c2)[C@H]2[C@H](CCN2S(=O)(=O)c2ccccc2F)[C@@H](CO)N3)c1 | 11.5 µM and 6.32 µM |
| CCc1ccc(S(=O)(=O)N2CCC3(CCCN(Cc4c(C)noc4C)C3)C2)cc1 (stereo not drawn) | 35.4 µM |
| O=C(O)CN1C[C@H]2c3ccccc3C(OCC3CC3)[C@@H]2C1 (stereo partly drawn) | > 39 µM (inactive) |
| CN1C(=O)c2cc(NC(=O)Cc3cccs3)ccc2OC[C@H]2O[C@@H](CC(=O)NCc3ccc(-c4ccccc4)cc3)CC[C@@H]21 | 20 µM and > 39 µM (inactive) |
| COc1cccc(CN2C[C@@H]3N[C@H](C2)C3c2ccc(-c3ccccc3C)cc2)c1 (stereo partly drawn) | 12.3 µM |
| CC(C)(Cc1ccc2ccccc2c1)NC[C@@H](O)COc1cccc(Cl)c1C#N | 12.3 µM |
| COc1ccc(NC(=O)N2CCCCN3[C@H](CO)[C@@H](c4ccc(-c5ccccc5F)cc4)[C@H]3C2)cc1 | 19.7 µM |
| CC(C)NC(=O)N1CC(=O)N2[C@H](C1)[C@@H](c1ccc(/C=C/c3ccccc3)cc1)[C@@H]2CO | 17.9 µM |
| Cc1sc2ncnc(NCC3CCN(c4cnn(C)c(=O)c4)C3)c2c1C (stereo not drawn) | 29.6 µM |
| Cc1ccc2c(c1)c(Cn1cc(-c3sccc3C)nn1)nn2C | 31.1 µM and 25.4 µM |
| COc1cccc(NC(=O)N2CC(=O)N3[C@H](C2)[C@@H](c2ccc(C#CCC4CCCC4)cc2)[C@@H]3CO)c1 | 15.8 µM and 22.4 µM |
| CC(=O)O.CC(=O)O.[Cl][Pt+2][Cl].[NH-]C1CCCCC1.[NH2-] | 19.4 µM |
| COc1ccccc1NC(=O)N1CCCCN2[C@H](CO)[C@@H](c3ccc(-c4cccc(C#N)c4)cc3)[C@@H]2C1 | 16.4 µM |
| CC(C)N1CCC2(CC1)CC(COCC1CC1)N(c1ncccn1)C2 (stereo not drawn) | 35.9 µM |
| CC(C)CC#Cc1ccc([C@@H]2[C@@H](CO)N3C(=O)CN(C(=O)Nc4cc(F)ccc4F)C[C@@H]23)cc1 | 17.1 µM |
| O=C1c2c(O)ccc(O)c2C(=O)c2c(NCCNCCO)ccc(NCCNCCO)c21 | 0.209 µM |
| N#Cc1cccc(-c2ccc3c(c2)[C@H]2[C@H](CCN2Cc2ccc4c(c2)OCO4)[C@@H](CO)N3)c1 | 15 µM |
| COc1cccc(-c2ccc([C@@H]3[C@H]4CN(C(=O)c5cccnc5)CC(=O)N4[C@H]3CO)cc2)c1 | > 39 µM (inactive) |
| O=C(Nc1cccnc1)c1cc(-c2cnc(-c3ccccc3)nc2)cn1CC1CC1 | 27.9 µM and 19.8 µM |
| Cc1ccccc1S(=O)(=O)N1C[C@@H]2N[C@H](C1)C2c1ccc(-c2cccc(C#N)c2)cc1 (stereo partly drawn) | 13.3 µM and 14.8 µM and 31.3 µM |
| Cc1ccn(CCNc2nccc(-c3c(C)nn(C)c3C)n2)n1 | > 39 µM (inactive) |

| SMILES | AC50 |
| --- | --- |
| CC(C)NC(=O)N1CCC2(CC1)OCCN(CCO)c1ccccc12 | > 39 µM (inactive) |
| COC(=O)C1CC23C=CNC4CCC5(c6ccccc6NC15C2C)C43 (stereo not drawn) | 19.4 µM |
| CCCCCCCCCCCCCCCC[n+]1ccccc1 | 6.86 µM |
| COc1cc(N2CCO[C@H]3[C@@H](Oc4ncccc4F)CC[C@H]32)ncn1 | 6.3 µM |
| COCCC(=O)C1Cc2nc(-c3ccccc3)sc2N1CC1CC1 (stereo not drawn) | 25.2 µM |
| COc1ccccc1-c1ccc(C2[C@H]3CNC[C@@H]2N3S(=O)(=O)c2ccc(F)cc2)cc1 (stereo partly drawn) | > 20 µM (inactive) |
| Cc1cccc(NC2COC3(CCN(C(=O)c4ccsc4)C3)C2)c1 (stereo not drawn) | 28.1 µM |
| C/C=C/c1ccc([C@H]2[C@@H](C#N)N(C(=O)NC3CCCCC3)[C@H]2CO)cc1 | 20.9 µM |
| O=C(Nc1cccc(F)c1)N1CCCCN2[C@H](CO)[C@H](c3ccc(C#Cc4cccnc4)cc3)[C@H]2C1 | 16.4 µM |
| N#C[C@H]1[C@H](c2ccc(C#Cc3ccccc3F)cc2)[C@@H](CO)N1C(=O)c1cccnc1 | > 39 µM (inactive) |
| O=S(=O)(c1cccs1)N1CCCCN2[C@H](CO)[C@H](c3ccc(/C=C/c4ccccc4)cc3)[C@@H]2C1 | 29 µM |
| COc1ccc(-c2ccc([C@@H]3[C@@H](CO)N4C(=O)CN(Cc5ccccc5)C[C@H]34)cc2)cc1 | > 39 µM (inactive) |
| CCc1cnc(N2[C@H](C#N)[C@H](c3ccc(-c4cccc(F)c4)cc3)[C@H]2CO)s1 | 22.6 µM |
| CC(C)N1CCN(CC#N)C2(CCN(C(=O)c3ccc[nH]3)C2)C1=O (stereo not drawn) | 37.9 µM |
| Cc1cccc(OCC(=O)N2CCC3(CC2)Nc2ccc(Cl)cc2-n2cccc23)c1 | 13.7 µM |
| O=C(C1CCC1)N1CC[C@H]2CN(Cc3cccc(Cl)c3)S(=O)(=O)[C@@H]2CC1 | > 39 µM (inactive) |
| O=C(c1cccc(F)c1)N1CCCCN2[C@H](CO)[C@H](c3ccc(C#CC4(O)CCCC4)cc3)[C@H]2C1 | 32.1 µM |
| CN(C)C(=O)c1ccc(-c2ccc3c(c2)[C@H]2[C@H](CCN2C(=O)C2CCCC2)[C@@H](CO)N3C)cc1 | 14.6 µM |
| CCCC(Nc1nc(-c2cccnc2)nc2c1cnn2C)c1cccs1 (stereo not drawn) | > 39 µM (inactive) |
| O=C(CC1CC1)N1CC[C@@H]2[C@@H](CO)Nc3ccc(-c4ccc(F)cc4)cc3[C@@H]21 | 20.2 µM |
| C[C@H](CO)N1C[C@H](C)[C@H](CN(C)C(=O)c2cc(Cl)cc(Cl)c2)OCc2ccccc2-c2c(n(C)c3ccccc23)C1=O | 15.3 µM |
| C/C=C/c1ccc(C2[C@H]3CNC[C@@H]2N3Cc2cc(F)ccc2F)cc1 (stereo partly drawn) | 11.4 µM |

| SMILES | AC50 |
| --- | --- |
| O=C(C[C@@H]1CC[C@H]2[C@@H](COC[C@@H](O)CN2Cc2cc(F)ccc2F)O1)NCc1ccc(Oc2ccccc2)cc1 | 16.9 µM |
| CC(C)C#Cc1ccc([C@@H]2[C@@H](CO)N(C(=O)c3cccc(F)c3)[C@H]2C#N)cc1 | > 20 µM (inactive) |
| COc1ccc(-c2nc(Nc3ccc(CN4CCC(C)CC4)cc3)c3ccccc3n2)cc1 | 12.6 µM |
| O=C(NC1CCCC1)[C@H]1[C@H](CO)[C@H]2Cn3c(ccc(C4=CCCCC4)c3=O)[C@@H]1N2CC1CC1 | > 39 µM (inactive) |
| O=C(c1ccc(F)cc1)N1CC(=O)N2[C@H](C1)[C@@H](c1ccc(C#CCC3CCCC3)cc1)[C@@H]2CO | 14.3 µM |
| CC(C)CC#Cc1ccc([C@@H]2[C@@H](CO)N3CCCCN(C(=O)Nc4ccccc4)C[C@@H]23)cc1 | 23.7 µM |
| O=C(c1ccc(F)cc1)N1CC(=O)N2[C@@H](CO)[C@@H](c3ccc(C#CCC4CCCC4)cc3)[C@@H]2C1 | 21.2 µM |
| OC[C@@H]1Nc2ccc(-c3cccc(F)c3)cc2[C@H]2[C@@H]1CCN2Cc1ccc(F)cc1 | > 20 µM (inactive) |
| N#C[C@H]1[C@@H](c2ccc(-c3cccc(F)c3)cc2)[C@@H](CO)N1C(=O)NC1CCCC1 | > 39 µM (inactive) |
| C[C@H]1CN([C@@H](C)CO)C(=O)c2cccc(NS(=O)(=O)c3ccc(F)cc3)c2O[C@H]1CN(C)Cc1ccc(Cl)c(Cl)c1 | 17.6 µM |
| CCCCN(C)C(=O)c1cnc(-c2noc3cc(NCC4CC4)ccc23)s1 | 20.4 µM |
| CCCNC(=O)c1cc(-c2cnc(NCc3ccccc3)nc2)cn1C | 15.1 µM |
| Cc1ccccc1-c1ccc2c(-c3ncc(C(=O)NCCN(C)C)s3)noc2c1 | 24.7 µM |
| OC(c1cc(C(F)(F)F)nc2c(C(F)(F)F)cccc12)C1CCCCN1 (stereo not drawn) | 20.4 µM |
| CC(C)CC#Cc1ccc([C@@H]2[C@@H](CO)N3C(=O)CN(C(=O)c4cccc(F)c4)C[C@@H]23)cc1 | 16.4 µM and 13.5 µM |
| Cc1nc(N2CCOCC2)nc2c1CCN(C(=O)C1CC1)CC2 | 21.7 µM |
| O=C(NC1CCCC1)N1CC[C@H]2CN(Cc3ccc(Cl)cc3)S(=O)(=O)[C@@H]2CC1 | 28.5 µM |
| CCOC(=O)N1CCC(N[C@H]2COC[C@@H]2OCC)CC1 | 36.8 µM |
| O=C(O)CC1CCC(c2ccc(-c3ccc(Nc4ccc(C(F)(F)F)nc4)cn3)cc2)CC1 (stereo not drawn) | 17.2 µM |
| CC(C)(C)c1ccc(S(=O)(=O)N2CCC[C@@H]2C(=O)NCCc2csc(-c3ccccc3)n2)cc1 | > 39 µM (inactive) |
| O=C(C1CCC1)N1C[C@@H]2N[C@H](C1)C2c1ccc(/C=C/c2ccccc2)cc1 (stereo partly drawn) | 12.7 µM and 11.5 µM |
| COc1ccccc1CN1CC[C@@H]2[C@H]1c1cc(-c3cccc(C(=O)N(C)C)c3)ccc1N[C@@H]2CO | 20.2 µM |

| SMILES | AC50 |
| --- | --- |
| COc1cc2c(cc1O)CC[C@@H]1[C@@H]2CC[C@]2(C)[C@@H](O)CC[C@@H]12 | 11.2 µM and 5.79 µM |
| COCCN1C(=O)CCC12CCC(NC(=O)c1cc(C)on1)CC2 (stereo not drawn) | > 39 µM (inactive) |
| CN(C)Cc1noc2c1CN(Cc1nccn1C)CC2 | > 39 µM (inactive) |
| O=C(Nc1cccc(F)c1)N1CCCCN2[C@H](CO)[C@H](c3ccc(C#Cc4cccnc4)cc3)[C@@H]2C1 | 1.34 µM and 2.47 µM |
| O=C(Nc1ccc(F)cc1)N1CC(=O)N2[C@H](CO)[C@H](c3ccc(-c4cccc(F)c4)cc3)[C@H]2C1 | 31.1 µM |
| CO[C@H]1CCN(Cc2ccoc2)[C@H]2CN(Cc3ccncc3)C[C@@H]12 | > 39 µM (inactive) |
| O=C(C[C@@H]1CC[C@@H]2[C@H](COC[C@H](O)CN2Cc2ccc3c(c2)OCO3)O1)N1CCCCC1 | > 39 µM (inactive) |
| COc1cccc(S(=O)(=O)N2CC[C@@H]3[C@H](CO)Nc4ccc(C5=CCCCC5)cc4[C@@H]32)c1 | 14.1 µM |
| N#C[C@@H]1[C@H](c2ccc(-c3cccc(F)c3)cc2)[C@H](CO)N1C(=O)NC1CCCC1 | 36 µM and 24 µM |
| COc1ccc(NC(=O)N2CCCCN3[C@H](C2)[C@@H](c2ccc(-c4ccccc4F)cc2)[C@@H]3CO)cc1 | 35.8 µM |
| COc1cccc(-c2ccc3c(c2)[C@@H]2[C@@H](CCN2S(=O)(=O)c2ccccc2F)[C@@H](CO)N3)c1 | 16 µM |
| COc1ccccc1NC(=O)N1C[C@@H]2N[C@H](C1)C2c1ccc(/C=C/c2ccccc2)cc1 (stereo partly drawn) | 6.68 µM |
| COC(=O)[C@@H]1C[C@@H](N(C)C)CN1S(=O)(=O)c1c(C)ccc2nsnc12 | > 39 µM (inactive) |
| COc1cccc(S(=O)(=O)N2CCCCN3[C@H](CO)[C@@H](c4ccc(C#CCC(C)C)cc4)[C@H]3C2)c1 | 12.1 µM and 13.6 µM and 21.9 µM |
| O=S(=O)(c1cccc(F)c1)N1CC[C@@H]2[C@H]1c1cc(C#Cc3ccccc3F)ccc1N[C@@H]2CO | 17.3 µM |
| O=C(C[C@H]1CC[C@H]2[C@@H](COC[C@H](O)CN2Cc2ccc(Oc3ccccc3)cc2)O1)N1CCN(c2ccccc2)CC1 | 27.6 µM |
| COc1ccccc1-c1ccc2c(c1)[C@H]1[C@H](CCN1C(=O)C1CCC1)[C@H](CO)N2 | 13 µM |
| CS(=O)(=O)NCc1cnc2n1CCN(Cc1cccs1)CC2 | 25.6 µM |
| O=C(NC1CCCC1)N1CCCCN2[C@H](CO)[C@H](c3ccc(-c4cccnc4)cc3)[C@H]2C1 | 18.2 µM |
| O=C1CC(c2ccncc2)C2(CCN(Cc3nccs3)CC2)N1 (stereo not drawn) | > 39 µM (inactive) |
| O=C(CC1CCC2(CC1)CCN(c1ncc(F)cn1)CC2)N1CC=CC1 | 21.7 µM |
| O=C(Nc1ccc2c(c1)OCO2)N1C[C@@H]2N[C@H](C1)C2c1ccc(C=Cc2ccccc2)cc1 (stereo partly drawn) | 11.6 µM and 8.75 µM |
